pIC50: −log10 of the molar value. Where two headings read alike, the source gives them in different places.
Columns and labels:
[1] = system: Leishmania amazonensis promastigotes expressing beta-lactamase; test: microbe, parasite or virus in culture; assay type: cell-based; settings: Leishmania amazonensis, read-out: IC50 L. amaz.
[2] = system: Cryptococcus neoformans (Cn); test: CLSI micro-dilution inhibition / MIC, Cryptococcus neoformans; assay type: cell-based; settings: running text b175, read-out: MIC against Cryptococcus neoformans
Method: C. neoformans (strain 1199s) was prepared following CLSI guidelines for the organism (CLSI, Reference Method for Broth Dilution Antifungal Susceptibility Testing of Yeasts, Approved Standard-Third. Edition, Clinical Laboratory Standards Institute, Wayne, Pa., 2008).
The A27-M2 CLSI standard micro-dilution method was used to screen an aurone library (MTSU Department of Chemistry) for inhibition of Cryptococcus neoformans (Cn). Each aurone was screened in triplicate. […] Toxicity assays were conducted on human THP1 macrophages and L6 rat fibroblasts.
The inhibition of Cn strains and C. gattii strains by Aurone 9051 (also referred to as “Aurone X”) was characterized in different medias (including RPMI 1640 (Standard), RPMI 1640+MOPS, Asparagine media, minimal media, or yeast extract peptone dextrose (YPD) media), against other serotypes and strains, and at different cell concentrations. Synergy of the compounds with current drugs was characterized, and a growth curve experiment was conducted.

[3] = system: C. albicans (ATCC strain 90028); test: Antifungal microdilution broth assay (PrestoBlue), C. albicans; assay type: cell-based, Candida albicans; settings: Candida albicans
In short: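 Inoculum of 1.5×10^3 cells/mL in RPMI-MOPS (0.165 M MOPS, pH 7.0), exposed to aurones for 24 h at 35 °C. Growth read by PrestoBlue (10% final) fluorescence at ex 560/em 590 nm.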

[4] = system: Trypanosoma brucei brucei 427 cells; test: T. brucei culture and assay (PrestoBlue); assay type: cell-based; settings: Trypanosoma brucei; Table 1; mean of 2(+) independent trials; read-out: IC50 T. brucei
ERK, JNK, p38 = test: Western blot, MAPK phosphorylation, RAW 264.7; settings: RAW264.7; LPS 15 min
Method: (§1) U0126 is a compound that inhibits MEK1/2 and was used as positive control for ERK phosphorylation inhibition (Hotokezaka, Sakai et al. 2002). Cells were lysed with radio-immunoprecipitation assay (RIPA) lysis buffer that contained a protease and phosphatase inhibitor cocktail. Cell lysates were then tested for protein concentration using a BCA protein assay and diluted with RIPA lysis buffer to normalize protein concentration in all samples. Lysates were mixed with sample loading buffer containing bromophenol blue, glycerol, SDS, and 2-mercaptoethanol. The separated proteins were then transferred onto a nitrocellulose membrane and blocked with 5% BSA in IX Tris-buffered saline with 0.1% Tween-20 for 1 h. The blots were incubated with primary antibodies at 4° C. overnight followed by incubation with HRP-conjugated secondary antibodies for 2 h at 22° C. The membranes were developed by addition of ECL substrate and images were collected with a ChemiDoc XRS+ system chemiluminescence imager (Bio-Rad, Hercules, Calif., USA). Western blot band intensity was quantified using Image Lab software (Bio-Rad, Hercules, Calif., USA). […]

IL-1β = test: Cytokine response by ELISA, IL-1β; assay type: cell-based, human; settings: LPS-stimulated THP-1, ELISA
Method: Dexamethasone is a synthetic glucocorticoid that suppresses LPS-induced pro-inflammatory cytokine expression and was used as a control (Abraham, Lawrence et al. 2006). Supernatants were collected for human cytokine ELISAs and the manufacturer's protocol was followed to assess the cytokine response. Cells remaining after the supernatant collection were tested for relative viability by Alamar Blue cytotoxicity assay as previously described.

iNOS = test: Western blot, iNOS expression, RAW 264.7; settings: LPS-stimulated RAW264.7, 24 h
Method: as §1

IKKβ, IκBα, p65 = test: Western blot, IKK / IκBα / p65 phosphorylation, THP-1; settings: 12.5, 25, 50 μM, LPS 15 min, dose-dependent
Method: as §1

[5] = system: p65-EGFP / TNFα promoter mCherry reporter; test: Live cell imaging of RAW 264.7 dual reporter cells (p65-EGFP, TNFα promoter mCherry); assay type: cell-based, murine; settings: 50 μM pre-treatment
Method: Cells were maintained at 37° C. with 5% CO2 in a humidified atmosphere during imaging. EGFP and mCherry fluorescence were imaged using FITC and Cy3 filters, respectively. Nikon Elements Software (Nikon. USA) was used for microscope control and image capture. Post-acquisition, images were analyzed using Fiji (Schindelin, Arganda-Carreras et al. 2012). Images were background subtracted and cytoplasmic:nuclear p65-EGFP and whole cell mCherry fluorescence were quantified for individual cells at each time point.

Row | SMILES | pIC50 [1] | melting point [°C] | MIC [2] [µM] | pIC50 ([3]; ATCC90028, Table 5, read-out: IC50 C. albicans) | pIC50 ([3]; ATCC90028, across C. albicans, C. glabrata, and C. tropicalis, read-out: IC50 values against Candida species) | pIC50 [4] | phosphorylation of ERK, JNK, or p38 (ERK, JNK, p38) | reduction of IL-1β expression (IL-1β) [%] | reduction in iNOS levels (iNOS; 50 μM) [%] | reduction in iNOS levels (iNOS; 100 μM) [%] | phosphorylation of IKKβ, IκBα and p65 (IKKβ, IκBα, p65) | expression of mCherry (TNFα promoter reporter) [5] | nuclear translocation of p65-EGFP post-LPS [5]
1 | COc1ccc(/C=C2\Oc3c(ccc(O)c3O)C2=O)cc1O [Aurone 1009, (Z)-6,7-dihydroxy-2-(3-hydroxy-4-methoxybenzylidene)benzofuran-3(2H)-one] | 5.02 | 275 to 280 | 30 | 4.80 | 4.74 to 5.00 | 4.73 |  |  |  |  |  |  | 
2 | O=C1/C(=C/c2ccc(CO)o2)Oc2ccccc21 [aurone 1] |  |  |  |  |  |  | no statistically significant effect | 98 | 31.7 | 57.5 | suppress the phosphorylation of all three proteins | smaller fold-change in the expression of mCherry | diminished
